Assay results taken from patent US10294202B2, “Pyrrolidinones as herbicides” (FMC Corporation, priority 2013, dated 2019).

What was measured:
pigweed = test: Test C pre-/postemergence herbicide test; assay type: in vivo, Amaranthus retroflexus
Description: (§1) Seeds of plant species selected from blackgrass (Alopecurus myosuroides), ryegrass, Italian (Italian ryegrass, Lolium multiflorum), wheat (winter wheat, Triticum aestivum), galium (catchweed bedstraw, Galium aparine), corn (Zea mays), crabgrass, large (large crabgrass, Digitaria sanguinalis), foxtail, giant (giant foxtail, Setaria faberii), johnsongrass (Sorghum halepense), lambsquarters (Chenopodium album), morningglory (Ipomoea coccinea), nutsedge, yellow (yellow nutsedge, Cyperus esculentus), pigweed (Amaranthus retroflexus), ragweed (common ragweed, Ambrosia elatior), soybean (Glycine max), barnyardgrass (Echinochloa crus-galli), oilseed rape (Brassica napus), waterhemp (common waterhemp, Amaranthus rudis), kochia (Kochia scoparia), oat, wild (wild oat, Avena fatua), surinam grass (Brachiaria decumbens), foxtail, green (green foxtail, Setaria viridis), goosegrass (Eleusine indica), bromegrass, downy (downy bromegrass, Bromus tectorum), nightshade (eastern black nightshade, Solanum ptycanthum), cocklebur (common cocklebur, Xanthium strumarium), cupgrass, woolly (woolly cupgrass, Eriochloa villosa), bermudagrass (Cynodon dactylon), sunflower, (common oilseed sunflower, Helianthus annuus), Russian thistle (Salsola kali) and velvetleaf (Abutilon theophrasti) were planted into a blend of loam soil and sand and treated preemergence with test chemicals formulated in a non-phytotoxic solvent mixture which included a surfactant. At the same time, plants selected from these crop and weed species and also barley (winter barley, Hordeum vulgare), […]), chickweed (common chickweed, Stellaria media), deadnettle (henbit deadnettle, Lamium amplexicaule), and canarygrass (littleseed canarygrass, Phalaris minor) were planted in pots containing Redi-Earth® planting medium (Scotts Company, 14111 Scottslawn Road, Marysville, Ohio 43041) comprising spaghnum peat moss, vermiculite, wetting agent and starter nutrients and treated with postemergence applications of test chemicals formulated in the same manner. Plants ranged in height from 2 to 18 cm (1- to 4-leaf stage) for postemergence treatments. Treated plants and controls were maintained in a greenhouse for 13 to 15 days, after which time all species were compared to controls and visually evaluated. Plant response ratings, summarized in Table C, are based on a scale of 0 to 100 where 0 is no effect and 100 is complete control. A dash (-) response means no test result.

wheat = test: Test A pre-/postemergence herbicide test; assay type: in vivo, Triticum aestivum; settings: Postemergence; for Plant response rating, Wheat: 125 g ai/ha, 0 to 100 scale, 0 is no effect, 100 is complete control; for Wheat plant response rating (0 to 100 scale, 0 is no effect, 100 is complete control): 500 g ai/ha
Procedure, shortened: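 Approximately 10 days after treatment in the greenhouse, plants were compared with untreated controls and given a 0–100 visual injury rating. Applications: preemergence directed soil spray; postemergence on 2–10 cm plants at the one- to two-leaf stage.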

wheat (winter wheat) = test: Test C pre-/postemergence herbicide test; assay type: in vivo, Triticum aestivum
Description: as §1

blackgrass = test: Test C pre-/postemergence herbicide test; assay type: in vivo, Alopecurus myosuroides; settings: for Blackgrass plant response rating: scale 0 to 100, 0 is no effect and 100 is complete control
Description: as §1

johnsongrass = test: Test C pre-/postemergence herbicide test; assay type: in vivo, Sorghum halepense
Description: as §1

crabgrass, large = test: Test C pre-/postemergence herbicide test; assay type: in vivo, Digitaria sanguinalis
Description: as §1

ragweed = test: Test C pre-/postemergence herbicide test; assay type: in vivo, Ambrosia elatior
Description: as §1

oilseed rape = test: Test C pre-/postemergence herbicide test; assay type: in vivo, Brassica napus
Description: as §1

velvetleaf = test: Test C pre-/postemergence herbicide test; assay type: in vivo, Abutilon theophrasti
Description: as §1

[1] = Postemergence, 31 g ai/ha, scale 0 to 100 (0 no effect, 100 complete control)
[2] = Postemergence, 62 g ai/ha, scale 0 (no effect) to 100 (complete control)
[3] = Postemergence, 125 g ai/ha, scale 0 to 100 (0 no effect, 100 complete control)
[4] = Postemergence, 250 g ai/ha, scale 0 to 100 (0 no effect, 100 complete control)
[5] = Preemergence, 31 g ai/ha, scale 0 to 100, 0 is no effect and 100 is complete control
[6] = Preemergence, 62 g ai/ha, scale 0 to 100 (0 no effect, 100 complete control)
[7] = Preemergence, 125 g ai/ha, scale 0 to 100 (0 no effect, 100 complete control)
[8] = Preemergence, 62 g ai/ha, scale 0 to 100

SMILES: O=C1NCC(c2cccc(C(F)(F)F)c2)C1C(=O)Nc1ccc(F)cc1F (racemic) [Compound 207]
- Plant response rating, Pigweed (pigweed; [1]): 0
- Plant response rating, Pigweed (pigweed; [2]): 10
- Plant response rating, Pigweed (pigweed; [3]): 10
- Plant response rating, Pigweed (pigweed; [4]): 20
- Pigweed plant response rating (pigweed; [5]): 0
- Pigweed plant response rating (pigweed; [6]): 0
- Plant response rating, Pigweed (pigweed; [7]): 0
- Plant response rating (scale of 0 to 100), Pigweed (pigweed; Preemergence, 250 g ai/ha): 0
- Plant response rating, Wheat (wheat): 0
- Wheat plant response rating (0 to 100 scale, 0 is no effect, 100 is complete control) (wheat): 60
- Plant response rating, Wheat (wheat (winter wheat); [1]): 0
- Plant response rating, Wheat (wheat (winter wheat); [2]): 0
- Plant response rating, Wheat (wheat (winter wheat); [3]): 0
- Plant response rating, Wheat (wheat (winter wheat); [4]): 0
- Wheat plant response rating (wheat (winter wheat); [5]): 0
- Wheat plant response rating (wheat (winter wheat); [6]): 0
- Plant response rating, Wheat (wheat (winter wheat); [7]): 5
- Plant response rating (scale of 0 to 100), Wheat (wheat (winter wheat); Preemergence, 250 g ai/ha): 45
- Plant response rating, Blackgrass (blackgrass; [1]): 0
- Plant response rating, Blackgrass (blackgrass; [2]): 0
- Plant response rating, Blackgrass (blackgrass; [3]): 0
- Plant response rating, Blackgrass (blackgrass; [4]): 0
- Blackgrass plant response rating (blackgrass; Preemergence, 31 g ai/ha): 0
- Plant response rating, Blackgrass (blackgrass; [8]): 80
- Plant response rating, Blackgrass (blackgrass; [7]): 85
- Plant response rating (scale of 0 to 100), Blackgrass (blackgrass; Preemergence, 250 g ai/ha): 90
- Plant response rating, Johnsongrass (johnsongrass; [1]): 0
- Plant response rating, Johnsongrass (johnsongrass; [2]): 0
- Plant response rating, Johnsongrass (johnsongrass; [3]): 0
- Plant response rating, Johnsongrass (johnsongrass; [4]): 0
- Johnsongrass plant response rating (johnsongrass; [5]): 0
- Johnsongrass plant response rating (johnsongrass; [6]): 0
- Plant response rating, Johnsongrass (johnsongrass; [7]): 30
- Plant response rating (scale of 0 to 100), Johnsongrass (johnsongrass; Preemergence, 250 g ai/ha): 60
- Plant response rating, Crabgrass, Large (crabgrass, large; [1]): 10
- Plant response rating, Crabgrass, Large (crabgrass, large; [2]): 15
- Plant response rating, Crabgrass, Large (crabgrass, large; [3]): 40
- Plant response rating, Crabgrass, Large (crabgrass, large; [4]): 65
- Crabgrass, Large plant response rating (crabgrass, large; [5]): 90
- Crabgrass, Large plant response rating (crabgrass, large; [6]): 90
- Plant response rating, Crabgrass, Large (crabgrass, large; [7]): 95
- Plant response rating (scale of 0 to 100), Crabgrass, Large (crabgrass, large; Preemergence, 250 g ai/ha): 95
- Plant response rating, Ragweed (ragweed; [1]): 0
- Plant response rating, Ragweed (ragweed; [2]): 0
- Plant response rating, Ragweed (ragweed; [3]): 0
- Plant response rating, Ragweed (ragweed; [4]): 15
- Ragweed plant response rating (ragweed; [5]): 0
- Ragweed plant response rating (ragweed; [6]): 0
- Plant response rating, Ragweed (ragweed; [7]): 0
- Plant response rating (scale of 0 to 100), Ragweed (ragweed; Preemergence, 250 g ai/ha): 5
- Plant response rating, Oilseed Rape (oilseed rape; [1]): 0
- Plant response rating, Oilseed Rape (oilseed rape; [2]): 0
- Plant response rating, Oilseed Rape (oilseed rape; [3]): 10
- Plant response rating, Oilseed Rape (oilseed rape; [4]): 30
- Oilseed Rape plant response rating (oilseed rape; [5]): 0
- Oilseed Rape plant response rating (oilseed rape; [6]): 0
- Plant response rating, Oilseed Rape (oilseed rape; [7]): 0
- Plant response rating (scale of 0 to 100), Oilseed Rape (oilseed rape; Preemergence, 250 g ai/ha): 80
- Plant response rating, Velvetleaf (velvetleaf; [1]): 0
- Plant response rating, Velvetleaf (velvetleaf; [2]): 0
- Plant response rating, Velvetleaf (velvetleaf; [3]): 0
- Plant response rating, Velvetleaf (velvetleaf; [4]): 0
- Velvetleaf plant response rating (velvetleaf; [5]): 0
- Velvetleaf plant response rating (velvetleaf; [6]): 0
- Plant response rating, Velvetleaf (velvetleaf; [7]): 0
- Plant response rating (scale of 0 to 100), Velvetleaf (velvetleaf; Preemergence, 250 g ai/ha): 0

SMILES: O=C1NCC(c2cccc(C(F)F)c2)C1C(=O)Nc1cccc(F)c1F (racemic) [Compound 211]
- Pigweed plant response rating (pigweed; [6]): 0
- Plant response rating, Pigweed (pigweed; [7]): 0
- Plant response rating (scale of 0 to 100), Pigweed (pigweed; Preemergence, 250 g ai/ha): 70
- Plant response rating, Wheat (wheat): 30
- Wheat plant response rating (0 to 100 scale, 0 is no effect, 100 is complete control) (wheat): 80
- Wheat plant response rating (wheat (winter wheat); [5]): 0
- Wheat plant response rating (wheat (winter wheat); [6]): 0
- Plant response rating, Wheat (wheat (winter wheat); [7]): 30
- Plant response rating (scale of 0 to 100), Wheat (wheat (winter wheat); Preemergence, 250 g ai/ha): 45
- Blackgrass plant response rating (blackgrass; Preemergence, 31 g ai/ha): 0
- Plant response rating, Blackgrass (blackgrass; [8]): 20
- Plant response rating, Blackgrass (blackgrass; [7]): 85
- Plant response rating (scale of 0 to 100), Blackgrass (blackgrass; Preemergence, 250 g ai/ha): 90
- Johnsongrass plant response rating (johnsongrass; [5]): 0
- Johnsongrass plant response rating (johnsongrass; [6]): 0
- Plant response rating, Johnsongrass (johnsongrass; [7]): 30
- Plant response rating (scale of 0 to 100), Johnsongrass (johnsongrass; Preemergence, 250 g ai/ha): 65
- Crabgrass, Large plant response rating (crabgrass, large; [5]): 100
- Crabgrass, Large plant response rating (crabgrass, large; [6]): 95
- Plant response rating, Crabgrass, Large (crabgrass, large; [7]): 95
- Plant response rating (scale of 0 to 100), Crabgrass, Large (crabgrass, large; Preemergence, 250 g ai/ha): 95
- Ragweed plant response rating (ragweed; [5]): 0
- Ragweed plant response rating (ragweed; [6]): 10
- Plant response rating, Ragweed (ragweed; [7]): 85
- Plant response rating (scale of 0 to 100), Ragweed (ragweed; Preemergence, 250 g ai/ha): 100
- Oilseed Rape plant response rating (oilseed rape; [5]): 0
- Oilseed Rape plant response rating (oilseed rape; [6]): 35
- Plant response rating, Oilseed Rape (oilseed rape; [7]): 90
- Plant response rating (scale of 0 to 100), Oilseed Rape (oilseed rape; Preemergence, 250 g ai/ha): 90
- Velvetleaf plant response rating (velvetleaf; [5]): 0
- Velvetleaf plant response rating (velvetleaf; [6]): 10
- Plant response rating, Velvetleaf (velvetleaf; [7]): 30
- Plant response rating (scale of 0 to 100), Velvetleaf (velvetleaf; Preemergence, 250 g ai/ha): 35
